Source: ChEMBL document CHEMBL6178000, “Gut Microbial Metabolite 4-Ethylphenylsulfate Is Selectively Deleterious and Anticancer to Colon Cancer Cells” (J Med Chem, 2025)
The source made the active and inactive calls. No cut-off for these calls is given here.

Assays:
CCD-841CoN = experiment: Cytotoxicity against human CCD-841CoN cells at 0.25 to 10 mM incubated for 24 to 48 hrs by MTT assay; type: toxicity, cell-based; settings: 10000 µM, dose lower 0.25 mM, time lower 24 hrs, dose upper 10 mM, time upper 48 hrs
HCT-116 [1] = experiment: Induction of cell cycle arrest in human HCT-116 cells assessed as accumulation of cells at S phase at 2.5 mM incubated for 48 hrs by PI staining based flow cytometric analysis (reference value: 10 %); type: functional
HCT-116 [2] = experiment: Induction of apoptosis in human HCT-116 cells assessed as increase in apoptotic rate at 2.5 mM incubated for 48 hrs by Annexin V-FITC/PI staining based flow cytometric analysis relative to control; type: functional
HCT-116 [3] = experiment: Induction of ROS generation in human HCT-116 cells assessed as increase in superoxide anion at 1.25 to 10 mM incubated for 48 hrs by DHE fluorescence based analysis; type: functional, cell-based; settings: dose 1.25-10 mM
HCT-116 [4] = experiment: Induction of cell cycle arrest in human HCT-116 cells assessed as accumulation of cells at S phase at 5 mM incubated for 48 hrs by PI staining based flow cytometric analysis (reference value: 10 %); type: functional
HCT-116 [5] = experiment: Induction of morphological changes in human HCT-116 cells assessed as rupture of plasma membrane at 2.5 to 10 mM incubated for 24 to 72 hrs by inverted microscopic analysis; type: functional, cell-based; settings: dose 2.5-10 mM, time 24-72 hrs
HCT-116 [6] = experiment: Induction of apoptosis in human HCT-116 cells assessed as viable cells at 1.25 mM incubated for 48 hrs by Annexin V-FITC/PI staining based flow cytometric analysis (reference value: 42.5 %); type: functional; settings: HCT-116, 48 h, read-out: Activity
HCT-116 [7] = experiment: Induction of cell cycle arrest in human HCT-116 cells assessed as accumulation of cells at G2/M phase at 2.5 mM incubated for 48 hrs by PI staining based flow cytometric analysis (reference value: 14 %); type: functional
HCT-116 [8] = experiment: Induction of morphological changes in human HCT-116 cells assessed as appearance of disorganized cell layers at 2.5 to 10 mM incubated for 24 to 72 hrs by inverted microscopic analysis; type: functional, cell-based; settings: dose 2.5-10 mM, time 24-72 hrs
HCT-116 [9] = experiment: Induction of cell cycle arrest in human HCT-116 cells assessed as accumulation of cells at G0/G1 phase at 2.5 mM incubated for 48 hrs by PI staining based flow cytometric analysis (reference value: 74.6 %); type: functional
HCT-116 [10] = experiment: Cytotoxicity against human HCT-116 cells assessed as reduction in ATP level at 0.25 to 10 mM by CellTiter-Glo assay; type: functional, cell-based; settings: dose 0.25-10 mM, time 24-72 hrs
HCT-116 [11] = experiment: Inhibition of colony formation in human HCT-116 cells at 0.25 to 10 mM incubated for 10 days by crystal violet staining based analysis; type: functional, cell-based; settings: dose 0.25-10 mM, time 10.0 day
HCT-116 [12] = experiment: Induction of cell cycle arrest in human HCT-116 cells assessed as accumulation of cells at S phase at 10 mM incubated for 48 hrs by PI staining based flow cytometric analysis (reference value: 10 %); type: functional
HCT-116 [13] = experiment: Induction of apoptosis in human HCT-116 cells assessed as increase in Bax/Bcl2 ratio incubated for 48 hrs by Western blotting analysis; type: functional, cell-based; settings: dose 2.5-5 mM
HCT-116 [14] = experiment: Induction of morphological changes in human HCT-116 cells assessed as appearance of freely floating cells at 10 mM incubated for 24 to 72 hrs by inverted microscopic analysis; type: functional, cell-based; settings: time 24-72 hrs
HCT-116 [15] = experiment: Induction of cell cycle arrest in human HCT-116 cells assessed as accumulation of cells at G0/G1 phase at 5 mM incubated for 48 hrs by PI staining based flow cytometric analysis (reference value: 74.6 %); type: functional
HCT-116 [16] = experiment: Induction of cell cycle arrest in human HCT-116 cells assessed as accumulation of cells at G2/M phase at 1.25 mM incubated for 48 hrs by PI staining based flow cytometric analysis (reference value: 14 %); type: functional
HCT-116 [17] = experiment: Induction of apoptosis in human HCT-116 cells assessed as early apoptotic cells at 5 mM incubated for 48 hrs by Annexin V-FITC/PI staining based flow cytometric analysis (reference value: 55.2 %); type: functional
HCT-116 [18] = experiment: Induction of apoptosis in human HCT-116 cells assessed as increase in apoptotic rate at 1.25 mM incubated for 48 hrs by Annexin V-FITC/PI staining based flow cytometric analysis relative to control; type: functional
HCT-116 [19] = experiment: Cytotoxicity against human HCT-116 cells assessed as reduction in cell viability at 10 mM incubated for 72 hrs by MTT assay (reference value: 100%); type: functional
HCT-116 [20] = experiment: Cytotoxicity against human HCT-116 cells assessed as reduction in ATP level incubated for 24 to 72 hrs by CellTiter-Glo assay; type: functional, cell-based; settings: dose 0.25-10 mM, time 24-72 hrs
HCT-116 [21] = experiment: Induction of cell cycle arrest in human HCT-116 cells assessed as accumulation of cells at G2/M phase at 5 mM incubated for 48 hrs by PI staining based flow cytometric analysis (reference value: 14 %); type: functional
HCT-116 [22] = experiment: Induction of apoptosis in human HCT-116 cells assessed as increase in apoptotic rate at 10 mM incubated for 48 hrs by Annexin V-FITC/PI staining based flow cytometric analysis relative to control; type: functional
HCT-116 [23] = experiment: Induction of cell cycle arrest in human HCT-116 cells assessed as accumulation of cells at G2/M phase at 10 mM incubated for 48 hrs by PI staining based flow cytometric analysis (reference value: 14 %); type: functional

## CCc1ccc(OS(=O)(=O)O)cc1
CCD-841CoN
  Activity: Non-toxic
HCT-116 [1]
  Activity: 15.4%
HCT-116 [2]
  Activity: 73%
HCT-116 [3]
  Activity: Active
HCT-116 [4]
  Activity: 9.8%
HCT-116 [5]
  Activity: Active
HCT-116 [6]
  viability at 1250 µM: 27.6%
HCT-116 [7]
  Activity: 19.7%
HCT-116 [8]
  Activity: Active
HCT-116 [9]
  Activity: 64%
HCT-116 [10]
  Activity: Time-dependent-effect
HCT-116 [11]
  inhibition: Active
HCT-116 [12]
  Activity: 13.5%
HCT-116 [13]
  Activity: Dose-dependent-effect
HCT-116 [14]
  Activity: Active
HCT-116 [15]
  Activity: 59.6%
HCT-116 [16]
  Activity: 19.7%
HCT-116 [17]
  Activity: 71.9%
HCT-116 [18]
  Activity: 52%
HCT-116 [19]
  Activity: 7%
HCT-116 [20]
  Activity: Dose-dependent-effect
HCT-116 [21]
  Activity: 29.8%
HCT-116 [22]
  Activity: 97%
HCT-116 [23]
  Activity: 27.2%
